Patent publication US20230278972A1, “SUBSTITUTED HALOALKYL SULFONANILIDE HERBICIDES” (FMC Corporation, priority 2020, published 2023)

Experiments:
Type in all cases: in vivo
[1] = test system: barnyardgrass (Echinochloa crus-galli); test: Test A preemergence, barnyardgrass; settings: Preemergence; for Barnyardgrass plant response rating: visual injury on 0 to 100 scale (0 no effect, 100 complete control), approximately 10 days; for Plant response rating, Barnyardgrass: 0 to 100 scale (0 no effect, 100 complete control)
Method in brief: (§1)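 Whole-plant herbicidal screen in pots of loam blended with sand. Sprays used a surfactant-containing, non-phytotoxic solvent vehicle. Timing was preemergence soil-directed at planting or postemergence at the one- to two-leaf stage (2–10 cm).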

kochia (Bassia scoparia) [2] = test: Test A preemergence, kochia; settings: Preemergence; for Kochia plant response rating: visual injury on 0 to 100 scale (0 no effect, 100 complete control), approximately 10 days; for Plant response rating, Kochia: 0 to 100 scale (0 no effect, 100 complete control)
Method in brief: as §1

[3] = test system: ragweed (common ragweed, Ambrosia artemisiifolia); test: Test A preemergence, ragweed; settings: Preemergence; for Ragweed plant response rating: visual injury on 0 to 100 scale (0 no effect, 100 complete control), approximately 10 days; for Plant response rating, Ragweed: 0 to 100 scale (0 no effect, 100 complete control)
Method in brief: as §1

[4] = test system: Ryegrass, Italian (Italian ryegrass, Lolium multiflorum); test: Test A preemergence, Ryegrass, Italian; settings: Preemergence; for Ryegrass, Italian plant response rating: visual injury on 0 to 100 scale (0 no effect, 100 complete control), approximately 10 days; for Plant response rating, Ryegrass, Italian: 0 to 100 scale (0 no effect, 100 complete control)
Method in brief: as §1

[5] = test system: Foxtail, Giant (giant foxtail, Setaria faberi); test: Test A preemergence, Foxtail, Giant; settings: Preemergence; for Foxtail, Giant plant response rating: visual injury on 0 to 100 scale (0 no effect, 100 complete control), approximately 10 days; for Plant response rating, Foxtail, Giant: 0 to 100 scale (0 no effect, 100 complete control)
Method in brief: as §1

[6] = test system: pigweed (Amaranthus retroflexus); test: Test A preemergence, pigweed; settings: for Pigweed plant response rating: visual injury on 0 to 100 scale (0 no effect, 100 complete control), approximately 10 days; for Plant response rating, Pigweed: 0 to 100 scale (0 no effect, 100 complete control)
Method in brief: (§2)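 Postemergence ratings come from foliar sprays onto one- to two-leaf plants of 2 to 10 cm grown in loam/sand; preemergence ratings come from a directed spray onto the soil of newly seeded pots. Formulation was a surfactant-containing non-phytotoxic solvent blend.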

[7] = test system: barnyardgrass (Echinochloa crus-galli); test: Test A postemergence, barnyardgrass; settings: Postemergence, 0 to 100 scale (0 no effect, 100 complete control); for Barnyardgrass plant response rating: 500 g ai/ha, visual injury vs untreated controls after approx. 10 days
Method in brief: as §2

kochia (Bassia scoparia) [8] = test: Test A postemergence, kochia; settings: Postemergence; for Kochia plant response rating: 500 g ai/ha, visual injury vs untreated controls after approx. 10 days
Method in brief: as §1

[9] = test system: ragweed (common ragweed, Ambrosia artemisiifolia); test: Test A postemergence, ragweed; settings: Postemergence; for Ragweed plant response rating: 500 g ai/ha, visual injury vs untreated controls after approx. 10 days
Method in brief: as §1

[10] = test system: Ryegrass, Italian (Italian ryegrass, Lolium multiflorum); test: Test A postemergence, Ryegrass, Italian; settings: Postemergence; for Ryegrass, Italian plant response rating: 500 g ai/ha, visual injury vs untreated controls after approx. 10 days
Method in brief: as §1

[11] = test system: Foxtail, Giant (giant foxtail, Setaria faberi); test: Test A postemergence, Foxtail, Giant; settings: Postemergence; for Foxtail, Giant plant response rating: 500 g ai/ha, visual injury vs untreated controls after approx. 10 days
Method in brief: as §1

[12] = test system: pigweed (Amaranthus retroflexus); test: Test A postemergence, pigweed; settings: Postemergence; for Pigweed plant response rating: 500 g ai/ha, visual injury vs untreated controls after approx. 10 days
Method in brief: as §1

[13] = test system: wheat (Triticum aestivum); test: Test A postemergence, wheat; settings: Postemergence; for Wheat plant response rating: 500 g ai/ha, visual injury vs untreated controls after approx. 10 days
Method in brief: as §2

corn (Zea mays) = test: Test A postemergence, corn; settings: Postemergence; for Corn plant response rating: 500 g ai/ha, visual injury vs untreated controls after approx. 10 days
Method in brief: as §1

[14] = test system: blackgrass (Alopecurus myosuroides); test: Test A postemergence, blackgrass; settings: Postemergence, 0 to 100 scale (0 no effect, 100 complete control); for Blackgrass plant response rating: 500 g ai/ha, visual injury vs untreated controls after approx. 10 days
Method in brief: as §1

[15] = test system: galium (catchweed bedstraw, Galium aparine); test: Test A postemergence, galium; settings: Postemergence; for Galium plant response rating: 500 g ai/ha, visual injury vs untreated controls after approx. 10 days
Method in brief: as §2

[16] = 125 g ai/ha, visual injury approx. 10 days
[17] = 125 g ai/ha, visual injury approx. 10 days, 0 to 100 scale (0 no effect, 100 complete control)
[18] = 0 to 100 scale (0 no effect, 100 complete control)
[19] = 1000 g ai/ha, visual injury, approx. 10 days
[20] = 1000 g ai/ha, visual injury, 0 to 100 scale (0 no effect, 100 complete control), approx. 10 days
[21] = 31 g ai/ha, visual injury, approx. 10 days
[22] = 31 g ai/ha, visual injury on 0 to 100 scale (0 no effect, 100 complete control), approx. 10 days
[23] = 125 g ai/ha, visual injury, approx. 10 days
[24] = 125 g ai/ha, 0 to 100 scale (0 no effect, 100 complete control)

Cc1cc(C)c(C2=NOC3CCCCC23)cc1NS(=O)(=O)C(F)(F)F (stereo not drawn) [Compound 123]
Barnyardgrass plant response rating ([1]; 125 g ai/ha): 100
Plant response rating, Barnyardgrass ([1]; 500 g ai/ha): 100
Kochia plant response rating (kochia (Bassia scoparia) [2]; 125 g ai/ha): 40
Plant response rating, Kochia (kochia (Bassia scoparia) [2]; 500 g ai/ha): 80
Ragweed plant response rating ([3]; 125 g ai/ha): 50
Plant response rating, Ragweed ([3]; 500 g ai/ha): 80
Ryegrass, Italian plant response rating ([4]; 125 g ai/ha): 90
Plant response rating, Ryegrass, Italian ([4]; 500 g ai/ha): 100
Foxtail, Giant plant response rating ([5]; 125 g ai/ha): 100
Plant response rating, Foxtail, Giant ([5]; 500 g ai/ha): 100
Pigweed plant response rating ([6]; 125 g ai/ha): 90
Plant response rating, Pigweed ([6]; 500 g ai/ha): 100
Plant response rating, Barnyardgrass [7, 16]: 90
Barnyardgrass plant response rating [7]: 90
Plant response rating, Kochia (kochia (Bassia scoparia) [8]; [17]): 50
Kochia plant response rating (kochia (Bassia scoparia) [8]; [18]): 70
Plant response rating, Ragweed [9, 17]: 50
Ragweed plant response rating [9, 18]: 70
Plant response rating, Ryegrass, Italian [10, 17]: 50
Ryegrass, Italian plant response rating [10, 18]: 50
Plant response rating, Foxtail, Giant [11, 17]: 30
Foxtail, Giant plant response rating [11, 18]: 80
Plant response rating, Pigweed [12, 17]: 60
Pigweed plant response rating [12, 18]: 80
Plant response rating, Wheat [13, 17]: 50
Wheat plant response rating [13, 18]: 60
Plant response rating, Corn (corn (Zea mays); [17]): 10
Corn plant response rating (corn (Zea mays); [18]): 70
Plant response rating, Blackgrass [14, 16]: 20
Blackgrass plant response rating [14]: 50
Plant response rating, Galium [15, 17]: 80
Galium plant response rating [15, 18]: 90

Cc1cc(C)c(C(=O)N2CCC(C)CC2)cc1NS(=O)(=O)C(F)(F)F [Compound 264]
Plant response rating, Barnyardgrass ([1]; 1000 g ai/ha): 100
Plant response rating, Kochia (kochia (Bassia scoparia) [2]; 1000 g ai/ha): 70
Plant response rating, Ragweed ([3]; 1000 g ai/ha): 90
Plant response rating, Ryegrass, Italian ([4]; 1000 g ai/ha): 100
Plant response rating, Foxtail, Giant ([5]; 1000 g ai/ha): 100
Plant response rating, Pigweed ([6]; 1000 g ai/ha): 80
Plant response rating, Barnyardgrass [7, 19]: 50
Plant response rating, Kochia (kochia (Bassia scoparia) [8]; [20]): 20
Plant response rating, Ragweed [9, 20]: 60
Plant response rating, Ryegrass, Italian [10, 20]: 50
Plant response rating, Foxtail, Giant [11, 20]: 40
Plant response rating, Pigweed [12, 20]: 60
Plant response rating, Wheat [13, 20]: 70
Plant response rating, Corn (corn (Zea mays); [20]): 20
Plant response rating, Blackgrass [14, 19]: 60
Plant response rating, Galium [15, 20]: 70

Cc1cc(C)c(C2=NOC3CCCCC23)cc1NS(=O)(=O)C(F)(F)F (stereo not drawn) [Compound 131]
Plant response rating, Barnyardgrass [1, 21]: 70
Barnyardgrass plant response rating ([1]; 125 g ai/ha): 90
Plant response rating, Kochia (kochia (Bassia scoparia) [2]; [21]): 30
Kochia plant response rating (kochia (Bassia scoparia) [2]; 125 g ai/ha): 40
Plant response rating, Ragweed [3, 21]: 0
Ragweed plant response rating ([3]; 125 g ai/ha): 40
Plant response rating, Ryegrass, Italian [4, 21]: 30
Ryegrass, Italian plant response rating ([4]; 125 g ai/ha): 80
Plant response rating, Foxtail, Giant [5, 21]: 90
Foxtail, Giant plant response rating ([5]; 125 g ai/ha): 100
Plant response rating, Pigweed [6, 21]: 30
Pigweed plant response rating ([6]; 125 g ai/ha): 90
Plant response rating, Barnyardgrass ([7]; 31 g ai/ha): 20
Plant response rating, Barnyardgrass [7, 16]: 80
Plant response rating, Kochia (kochia (Bassia scoparia) [8]; [22]): 40
Plant response rating, Kochia (kochia (Bassia scoparia) [8]; [17]): 60
Plant response rating, Ragweed [9, 22]: 30
Plant response rating, Ryegrass, Italian [10, 22]: 0
Plant response rating, Foxtail, Giant [11, 22]: 0
Plant response rating, Foxtail, Giant [11, 17]: 10
Plant response rating, Pigweed [12, 22]: 50
Plant response rating, Wheat [13, 22]: 0
Plant response rating, Corn (corn (Zea mays); [22]): 0
Plant response rating, Corn (corn (Zea mays); [17]): 20
Plant response rating, Blackgrass ([14]; 31 g ai/ha): 20
Plant response rating, Blackgrass [14, 16]: 0
Plant response rating, Galium [15, 22]: 60
Plant response rating, Galium [15, 17]: 90

Cc1cc(Cl)c(NS(=O)(=O)C(F)(F)F)cc1C1=NOC2(CCCCC2)C1 [Compound 221]
Plant response rating, Barnyardgrass [1, 23]: 100
Plant response rating, Barnyardgrass ([1]; 500 g ai/ha): 100
Plant response rating, Kochia (kochia (Bassia scoparia) [2]; [23]): 70
Plant response rating, Kochia (kochia (Bassia scoparia) [2]; 500 g ai/ha): 90
Plant response rating, Ragweed [3, 23]: 90
Plant response rating, Ragweed ([3]; 500 g ai/ha): 90
Plant response rating, Ryegrass, Italian [4, 23]: 100
Plant response rating, Ryegrass, Italian ([4]; 500 g ai/ha): 100
Plant response rating, Foxtail, Giant [5, 23]: 100
Plant response rating, Foxtail, Giant ([5]; 500 g ai/ha): 100
Plant response rating, Pigweed [6, 23]: 60
Plant response rating, Pigweed ([6]; 500 g ai/ha): 100
Plant response rating, Barnyardgrass ([7]; 125 g ai/ha): 30
Barnyardgrass plant response rating [7]: 80
Plant response rating, Kochia (kochia (Bassia scoparia) [8]; [24]): 60
Kochia plant response rating (kochia (Bassia scoparia) [8]; [18]): 70
Plant response rating, Ragweed [9, 24]: 70
Ragweed plant response rating [9, 18]: 90
Plant response rating, Ryegrass, Italian [10, 24]: 0
Ryegrass, Italian plant response rating [10, 18]: 60
Plant response rating, Foxtail, Giant [11, 24]: 0
Foxtail, Giant plant response rating [11, 18]: 90
Plant response rating, Pigweed [12, 24]: 20
Pigweed plant response rating [12, 18]: 80
Plant response rating, Wheat [13, 24]: 20
Wheat plant response rating [13, 18]: 70
Plant response rating, Corn (corn (Zea mays); [24]): 10
Corn plant response rating (corn (Zea mays); [18]): 40
Plant response rating, Blackgrass ([14]; 125 g ai/ha): 10
Blackgrass plant response rating [14]: 30
Plant response rating, Galium [15, 24]: 80
Galium plant response rating [15, 18]: 100
